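Compound exposure: 48 hours, 5 concentrations, 96-well plates. Here, GI50 denotes the concentration required for 50% inhibition of growth. TGI: concentration producing complete growth inhibition.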
How the values were obtained:
Test in all cases: inhibition of tumour cell growth, NCI panel, 48 h
[1] = system: NCI-H460 lung
[2] = system: UO-31 renal
[3] = system: MALME-3M melanoma
[4] = system: HS 578T breast
[5] = system: HT29 colon
[6] = system: KM12 colon
[7] = system: SF-539 CNS
[8] = system: SK-MEL-28 melanoma
[9] = system: ACHN renal
[10] = system: SF-268 CNS
[11] = system: MCF7 breast
[12] = system: T-47D breast
[13] = system: RPMI-8226 leukemia
[14] = system: OVCAR-8 ovarian
[15] = system: SW-620 colon
[16] = system: A498 renal
[17] = system: HCT-15 colon
[18] = system: SK-OV-3 ovarian
[19] = system: NCI-H522 lung
[20] = system: UACC-257 melanoma
[21] = system: NCI-H226 lung
[22] = system: A549 NSCLC
[23] = system: EKVX NSCLC
[24] = system: U251 CNS
[25] = system: MOLT-4 leukemia
[26] = system: RXF 393 renal
[27] = system: SNB-75 CNS
[28] = system: 786-0 renal
[29] = system: BT-549 breast
[30] = system: CCRF-CEM leukemia
[31] = system: MDA-MB-231 breast
[32] = system: NCI-H23 lung
[33] = system: SN12C renal
[34] = system: HL-60(TB) leukemia
[35] = system: PC-3 prostate
[36] = system: NCI/ADR-RES ovarian
[37] = system: OVCAR-3 ovarian
[38] = system: SNB-19 CNS
[39] = system: SF-295 CNS
[40] = system: HCC-2998 colon
[41] = system: IGROV1 ovarian
[42] = system: OVCAR-4 ovarian
[43] = system: CAKI-1 renal
[44] = system: TK-10 renal
[45] = system: OVCAR-5 ovarian
[46] = system: SK-MEL-2 melanoma
[47] = system: LOX IMVI melanoma
[48] = system: SK-MEL-5 melanoma
[49] = system: COLO 205 colon
[50] = system: K-562 leukemia
[51] = system: M14 melanoma
[52] = system: HOP-92 NSCLC
[53] = system: MDA-MB-435
[54] = system: HOP-62 NSCLC
[55] = system: HCT-116 colon
[56] = system: DU-145 prostate
[57] = system: SR leukemia
[58] = system: UACC-62 melanoma

## O=C(CN1CCN(c2ccc(Cl)cc2)CC1)N1CCN(c2nnc(-c3ccc(Cl)cc3)c(-c3ccc(Cl)cc3)n2)CC1
[1]
  GI50: > 100 µM
  TGI: > 100 µM
[2]
  GI50: 20.3 µM
  TGI: > 100 µM
[3]
  GI50: 39.9 µM
  TGI: > 100 µM
[4]
  GI50: 24 µM
  TGI: > 100 µM
[5]
  GI50: 9.85 µM
  TGI: > 100 µM
[6]
  GI50: 9.45 µM
  TGI: > 100 µM
[7]
  GI50: 19.6 µM
  TGI: 69.9 µM
[8]
  GI50: > 100 µM
  TGI: > 100 µM
[9]
  GI50: 31.5 µM
  TGI: > 100 µM
[10]
  GI50: 34 µM
  TGI: > 100 µM
[11]
  GI50: 8.9 µM
  TGI: > 100 µM
[12]
  GI50: 10.8 µM
  TGI: > 100 µM
[13]
  GI50: > 100 µM
  TGI: > 100 µM
[14]
  GI50: > 100 µM
  TGI: > 100 µM
[15]
  GI50: > 100 µM
  TGI: > 100 µM
[16]
  GI50: 43.1 µM
  TGI: > 100 µM
[17]
  GI50: > 100 µM
  TGI: > 100 µM
[18]
  GI50: 33.9 µM
  TGI: > 100 µM
[19]
  GI50: 18.2 µM
  TGI: 46.9 µM
[20]
  GI50: > 100 µM
  TGI: > 100 µM
[21]
  GI50: 45.7 µM
  TGI: > 100 µM
[22]
  GI50: > 100 µM
  TGI: > 100 µM
[23]
  GI50: 21.5 µM
  TGI: > 100 µM
[24]
  GI50: 41.7 µM
  TGI: > 100 µM
[25]
  GI50: 5.92 µM
  TGI: > 100 µM
[26]
  GI50: 23.8 µM
  TGI: 77.3 µM
[27]
  GI50: 15.1 µM
  TGI: 35.5 µM
[28]
  GI50: 22 µM
  TGI: > 100 µM
[29]
  GI50: 28.7 µM
  TGI: > 100 µM
[30]
  GI50: 16.5 µM
  TGI: 73.9 µM
[31]
  GI50: 50.8 µM
  TGI: > 100 µM
[32]
  GI50: 48 µM
  TGI: > 100 µM
[33]
  GI50: 37 µM
  TGI: > 100 µM
[34]
  GI50: > 100 µM
  TGI: > 100 µM
[35]
  GI50: 57.5 µM
  TGI: > 100 µM
[36]
  GI50: 34 µM
  TGI: > 100 µM
[37]
  GI50: 48.3 µM
  TGI: > 100 µM
[38]
  GI50: 19.1 µM
  TGI: 63.5 µM
[39]
  GI50: 20.9 µM
  TGI: > 100 µM
[40]
  GI50: > 100 µM
  TGI: > 100 µM
[41]
  GI50: 35.1 µM
  TGI: > 100 µM
[42]
  GI50: > 100 µM
  TGI: > 100 µM
[43]
  GI50: 52.6 µM
  TGI: > 100 µM
[44]
  GI50: 26.2 µM
  TGI: > 100 µM
[45]
  GI50: > 100 µM
  TGI: > 100 µM
[46]
  GI50: 51.5 µM
  TGI: > 100 µM
[47]
  GI50: 14.5 µM
  TGI: 76.4 µM
[48]
  GI50: 14.6 µM
  TGI: > 100 µM
[49]
  GI50: 55.3 µM
  TGI: > 100 µM
[50]
  GI50: > 100 µM
  TGI: > 100 µM
[51]
  GI50: 28.2 µM
  TGI: > 100 µM
[52]
  GI50: 22.4 µM
  TGI: 60.4 µM
[53]
  GI50: 50.9 µM
  TGI: > 100 µM
[54]
  GI50: 40.9 µM
  TGI: > 100 µM
[55]
  GI50: 7.84 µM
  TGI: > 100 µM
[56]
  GI50: 80 µM
  TGI: > 100 µM
[57]
  GI50: 10.1 µM
  TGI: 53.9 µM

## O=[N+]([O-])c1ccc2c(N3CCC(CCCC4CCN(c5ncnc6cc([N+](=O)[O-])ccc56)CC4)CC3)ncnc2c1
[1]
  GI50: 23.9 µM
  TGI: > 100 µM
[2]
  GI50: 27.3 µM
  TGI: > 100 µM
[3]
  GI50: > 59.7 µM
  TGI: > 92.1 µM
[4]
  GI50: > 46.3 µM
  TGI: > 100 µM
[5]
  GI50: 21.7 µM
  TGI: > 86.4 µM
[6]
  GI50: > 56.7 µM
  TGI: > 100 µM
[7]
  GI50: > 47.9 µM
  TGI: > 100 µM
[8]
  GI50: > 44.7 µM
  TGI: > 100 µM
[9]
  GI50: > 48 µM
  TGI: > 100 µM
[10]
  GI50: > 53.3 µM
  TGI: > 100 µM
[11]
  GI50: 0.619 µM
  TGI: > 59.3 µM
[12]
  GI50: 0.454 µM
  TGI: > 69.3 µM
[13]
  GI50: 0.388 µM
  TGI: 96.9 µM
[14]
  GI50: 1.62 µM
  TGI: > 100 µM
[15]
  GI50: > 48 µM
  TGI: > 100 µM
[16]
  GI50: 1.44 µM
  TGI: > 100 µM
[17]
  GI50: > 50.6 µM
  TGI: > 100 µM
[18]
  GI50: > 46.3 µM
  TGI: > 100 µM
[19]
  GI50: > 45.9 µM
  TGI: > 100 µM
[20]
  GI50: 1.55 µM
  TGI: > 100 µM
[21]
  GI50: 9.47 µM
  TGI: > 75.3 µM
[22]
  GI50: 38.1 µM
  TGI: > 100 µM
[24]
  GI50: > 42.2 µM
  TGI: > 100 µM
[25]
  GI50: 24.8 µM
  TGI: > 100 µM
[26]
  GI50: 30.8 µM
  TGI: > 100 µM
[27]
  GI50: > 39.6 µM
  TGI: > 71.2 µM
[28]
  GI50: > 46 µM
  TGI: > 86.2 µM
[29]
  GI50: 6.33 µM
  TGI: > 70.6 µM
[30]
  GI50: 44.7 µM
  TGI: > 100 µM
[31]
  GI50: > 47.1 µM
  TGI: > 100 µM
[32]
  GI50: 2.29 µM
  TGI: > 100 µM
[33]
  GI50: > 55.9 µM
  TGI: > 100 µM
[34]
  GI50: 17.8 µM
  TGI: > 100 µM
[35]
  GI50: 8.96 µM
  TGI: > 100 µM
[36]
  GI50: 0.658 µM
  TGI: > 100 µM
[37]
  GI50: 21.6 µM
  TGI: > 100 µM
[38]
  GI50: > 42.3 µM
  TGI: > 100 µM
[39]
  GI50: 5.53 µM
  TGI: > 100 µM
[40]
  GI50: > 87.1 µM
  TGI: > 100 µM
[41]
  GI50: > 62.8 µM
  TGI: > 100 µM
[42]
  GI50: 21.5 µM
  TGI: > 100 µM
[58]
  GI50: > 33.4 µM
  TGI: > 56.9 µM
[43]
  GI50: 5.29 µM
  TGI: > 100 µM
[44]
  GI50: > 58.7 µM
  TGI: > 100 µM
[45]
  GI50: > 100 µM
  TGI: > 100 µM
[46]
  GI50: > 52.2 µM
  TGI: > 85.3 µM
[47]
  GI50: 29.7 µM
  TGI: > 100 µM
[48]
  GI50: 0.156 µM
  TGI: 11.8 µM
[49]
  GI50: 11.5 µM
  TGI: > 100 µM
[50]
  GI50: 0.217 µM
  TGI: > 100 µM
[51]
  GI50: > 49 µM
  TGI: > 100 µM
[52]
  GI50: 4.89 µM
  TGI: > 76 µM
[53]
  GI50: > 40.7 µM
  TGI: > 100 µM
[54]
  GI50: > 32.2 µM
  TGI: > 100 µM
[55]
  GI50: 0.514 µM
  TGI: 97.6 µM
[56]
  GI50: > 96.2 µM
  TGI: > 100 µM
[57]
  GI50: 2.5 µM
  TGI: > 100 µM
